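Briefly, cells in 96-well plates were exposed to five compound concentrations for 48 h, and endpoints were estimated by linear interpolation. GI50 marks 50% less growth.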 The source made the active and inactive calls. No stated cut-off is given here; in the data, active = GI50 up to about 1.1 µM and inactive = higher.
Experiments:
Experiment in all cases: NCI tumour cell line growth inhibition, 48 h
HCT-15 = test system: HCT-15
SN12C = test system: SN12C
RPMI-8226 = test system: RPMI-8226
SNB-75 = test system: SNB-75
SF-268 = test system: SF-268
HCT-116 = test system: HCT-116
XF498 = test system: XF498
LXFL 529 = test system: LXFL 529
DMS-114 = test system: DMS-114
NCI-H23 = test system: NCI-H23
SK-MEL-28 = test system: SK-MEL-28
KM12 = test system: KM12
OVCAR-3 = test system: OVCAR-3
SK-OV-3 = test system: SK-OV-3
SF-295 = test system: SF-295
TK-10 = test system: TK-10
DMS-273 = test system: DMS-273
EKVX = test system: EKVX
CAKI-1 = test system: CAKI-1
786-0 = test system: 786-0
UACC-62 = test system: UACC-62
MOLT-4 = test system: MOLT-4
HOP-62 = test system: HOP-62
LOX IMVI = test system: LOX IMVI
HOP-92 = test system: HOP-92
OVCAR-5 = test system: OVCAR-5
ACHN = test system: ACHN
IGROV-1 = test system: IGROV-1
SK-MEL-5 = test system: SK-MEL-5
KM-20L2 = test system: KM-20L2
K562 = test system: K562
OVCAR-4 = test system: OVCAR-4
NCI-H226 = test system: NCI-H226
SW-620 = test system: SW-620
NCI-H522 = test system: NCI-H522
HT-29 = test system: HT-29
SF-539 = test system: SF-539
A498 = test system: A498
A549 = test system: A549
M19-MEL = test system: M19-MEL
SNB-78 = test system: SNB-78
RXF 393 = test system: RXF 393
U-251 = test system: U-251
OVCAR-8 = test system: OVCAR-8
HCC 2998 = test system: HCC 2998
CCRF-CEM = test system: CCRF-CEM
M14 = test system: M14
UACC-257 = test system: UACC-257
SK-MEL-2 = test system: SK-MEL-2
DLD-1 = test system: DLD-1
COLO 205 = test system: COLO 205
Malme-3M = test system: Malme-3M
NCI-H460 = test system: NCI-H460
HOP-18 = test system: HOP-18
HL-60 = test system: HL-60
SNB-19 = test system: SNB-19
UO-31 = test system: UO-31

For `CCCN(CCCC(NC(C)=O)C(=O)NCc1ccccc1)C(=O)N(C)N=O` (centres undefined), the GI50 (HCT-15) was > 100 µM, the GI50 (SN12C) was > 100 µM (inactive) and the GI50 (RPMI-8226) was > 100 µM (inactive). The GI50 (SNB-75) was 41.3 µM (inactive), the GI50 (SF-268) was > 100 µM (inactive) and the GI50 (HCT-116) was > 100 µM (inactive). For the same compound, the GI50 (XF498) was > 100 µM (inactive), the GI50 (LXFL 529) was > 100 µM (inactive) and the GI50 (DMS-114) was > 100 µM (inactive). For the same compound, the GI50 (NCI-H23) was > 100 µM (inactive), the GI50 (SK-MEL-28) was > 100 µM (inactive) and the GI50 (KM12) was > 100 µM (inactive). For the same compound, the GI50 (OVCAR-3) was > 100 µM (inactive), the GI50 (SK-OV-3) was > 100 µM (inactive) and the GI50 (SF-295) was > 100 µM (inactive). For the same compound, the GI50 (TK-10) was > 100 µM (inactive), the GI50 (DMS-273) was > 100 µM (inactive) and the GI50 (EKVX) was > 100 µM (inactive). For the same compound, the GI50 (CAKI-1) was > 100 µM (inactive), the GI50 (786-0) was > 100 µM (inactive) and the GI50 (UACC-62) was > 100 µM (inactive). For the same compound, the GI50 (MOLT-4) was 77.6 µM (inactive), the GI50 (HOP-62) was > 100 µM (inactive) and the GI50 (LOX IMVI) was > 100 µM (inactive). For the same compound, the GI50 (HOP-92) was > 100 µM (inactive), the GI50 (OVCAR-5) was > 100 µM (inactive) and the GI50 (ACHN) was > 100 µM (inactive). For the same compound, the GI50 (IGROV-1) was > 100 µM (inactive), the GI50 (SK-MEL-5) was > 100 µM (inactive) and the GI50 (KM-20L2) was > 100 µM (inactive). For the same compound, the GI50 (K562) was > 100 µM (inactive), the GI50 (OVCAR-4) was > 100 µM (inactive) and the GI50 (NCI-H226) was > 100 µM (inactive). The GI50 (SW-620) was > 100 µM (inactive), the GI50 (NCI-H522) was > 100 µM (inactive) and the GI50 (HT-29) was > 100 µM (inactive). The GI50 (SF-539) was > 100 µM (inactive), the GI50 (A498) was > 100 µM (inactive) and the GI50 (A549) was > 100 µM (inactive). The GI50 (M19-MEL) was > 100 µM (inactive), the GI50 (SNB-78) was > 100 µM (inactive) and the GI50 (RXF 393) was > 100 µM (inactive). For the same compound, the GI50 (U-251) was > 100 µM (inactive), the GI50 (OVCAR-8) was > 100 µM (inactive) and the GI50 (HCC 2998) was > 100 µM (inactive). For the same compound, the GI50 (CCRF-CEM) was > 100 µM (inactive), the GI50 (M14) was > 100 µM (inactive) and the GI50 (UACC-257) was > 100 µM (inactive). For the same compound, the GI50 (SK-MEL-2) was > 100 µM (inactive), the GI50 (DLD-1) was > 100 µM (inactive) and the GI50 (COLO 205) was > 100 µM (inactive). The GI50 (Malme-3M) was > 100 µM (inactive) and the GI50 (NCI-H460) was > 100 µM (inactive).

In the case of `C[C@@]12CCCc3coc(c31)C(=O)c1cc3c(cc12)C(=O)C=CC3=O` [XESTOQUINONE], the GI50 (HCT-15) is reported as 17.7 µM, the GI50 (SN12C) is reported as 20.3 µM (inactive) and the GI50 (RPMI-8226) is reported as 5.98 µM (inactive). For the same compound, the GI50 (SNB-75) was 19.3 µM (inactive), the GI50 (HOP-18) was 15 µM (inactive) and the GI50 (XF498) was 16.1 µM (inactive). For the same compound, the GI50 (LXFL 529) was 15 µM (inactive), the GI50 (HL-60) was 2.38 µM (inactive) and the GI50 (DMS-114) was 18.5 µM (inactive). For the same compound, the GI50 (NCI-H23) was 16 µM (inactive), the GI50 (KM12) was 21.7 µM (inactive) and the GI50 (OVCAR-3) was 20.2 µM (inactive). For the same compound, the GI50 (TK-10) was 21.2 µM (inactive), the GI50 (EKVX) was 18.8 µM (inactive) and the GI50 (CAKI-1) was 14.9 µM (inactive). For the same compound, the GI50 (786-0) was 17 µM (inactive), the GI50 (UACC-62) was 17.4 µM (inactive) and the GI50 (MOLT-4) was 1.96 µM (inactive). The GI50 (LOX IMVI) was 15.8 µM (inactive), the GI50 (HOP-92) was 4.52 µM (inactive) and the GI50 (OVCAR-5) was 22 µM (inactive). The GI50 (ACHN) was 12.8 µM (inactive), the GI50 (IGROV-1) was 18.5 µM (inactive) and the GI50 (SK-MEL-5) was 16.7 µM (inactive). The GI50 (KM-20L2) was 18.4 µM (inactive), the GI50 (K562) was 3.61 µM (inactive) and the GI50 (OVCAR-4) was 15.5 µM (inactive). The GI50 (SW-620) was 5.08 µM (inactive), the GI50 (SNB-19) was 43.8 µM (inactive) and the GI50 (NCI-H522) was 7.06 µM (inactive). The GI50 (HT-29) was 22.3 µM (inactive), the GI50 (SF-539) was 15.7 µM (inactive) and the GI50 (A498) was 56.2 µM (inactive). For the same compound, the GI50 (A549) was 23.7 µM (inactive), the GI50 (M19-MEL) was 13.8 µM (inactive) and the GI50 (RXF 393) was 14.9 µM (inactive). The GI50 (U-251) was 31.3 µM (inactive), the GI50 (OVCAR-8) was 15.5 µM (inactive) and the GI50 (HCC 2998) was 28.1 µM (inactive). For the same compound, the GI50 (CCRF-CEM) was 2.23 µM (inactive), the GI50 (UO-31) was 16.2 µM (inactive) and the GI50 (M14) was 16.1 µM (inactive). For the same compound, the GI50 (UACC-257) was 16.2 µM (inactive), the GI50 (SK-MEL-2) was 15.4 µM (inactive) and the GI50 (DLD-1) was 2.54 µM (inactive). The GI50 (NCI-H460) was 21.8 µM (inactive).

— ChEMBL document CHEMBL1201862, “PubChem BioAssay data set” (2004)
